Results on six compounds are retold here after patent publication US20260167622A1, “PAN-KRAS DEGRADING AGENT, AND PREPARATION METHOD THEREFOR AND USE THEREOF” (LEADINGTAC PHARMACEUTICAL (SHAOXING) CO., LTD., priority 2022, published 2026).

For orientation: IC50 means the concentration that gives 50% inhibition. Read a high IC50 as weaker potency in that assay. By DC50 is commonly meant the concentration at which degradation of the target reaches its halfway point. Higher therefore signals degradation only at high concentration. The term Dmax denotes the greatest extent of degradation seen. High values mean a fuller loss of target, low ones a partial loss of target.

What all share (format): cell-based
The subject of experiment [1] is KRAS G13D mutant human colorectal cancer epithelial cell DLD-1. Briefly: 3D cell proliferation inhibition assay, DLD-1. Conditions: DLD-1, 168 h, 3D culture, 7 days, CTG. The text has this: (§1) Test Example 6: 3D Cell Proliferation Inhibition Assay
(§2) The inhibitory effects of the compounds on 3D cell proliferation were investigated on KRAS G12C mutant human non-small cell lung cancer cell NCI-H358, KRAS G12D mutant human lung cancer cell A427, KRAS G12D mutant human gastric cancer cell AGS, KRAS G12D mutant human metastatic pancreatic cancer cell AsPc-1, KRAS G12V mutant human lung squamous carcinoma cell SW900, KRAS G12V mutant human colorectal cancer cell SW620, KRAS G13D mutant human colorectal cancer epithelial cell DLD-1, and KRAS WT human gastric cancer cell MKN1. The specific procedures were as follows:
(§3) 10 μL of each compound solution diluted in a gradient was added to corresponding wells of a 96-well low-adsorption microplate (PerkinElmer), so that the final concentrations of the test compounds in the reaction system were in a range of 10000-0.026 nM. The final concentration of DMSO was 0.2%. Then 90 µL of cells were correspondingly seeded into each well to achieve a cell density of 5×10^2 cells/well (the cell density of SW900 was 5×10^3 cells/well, and the cell density of MKN1 was 1×10^3 cells/well). In addition to test wells for the test compounds, both a DMSO control well and a medium control well were set, with the DMSO control well containing DMSO and cells and the medium well containing only a medium. After the sample loading, the 96-well low-adsorption microplate was incubated in an incubator at 37° C. with […] for 7 days. After 7 days, the microplate was taken out, and 100 μL of CTG reagent (Promega) was added to each well. The plate was incubated at room temperature for 60 m and read on a microplate reader EnVision by the chemiluminescence program. The inhibition rates of the compounds at each concentration were calculated using the formula for the percentage inhibition of cell proliferation: inhibition rate 00=(mean value of DMSO control group−single concentration reading value of compound)/(mean value of DMSO control group−mean value of medium control group)×100. Then non-linear curve fillings for logarithmic concentration-inhibition rate were performed by GraphPad Prism 8, and the IC50 values of the compounds were obtained (Table 6).

The subject of experiment [2] is KRAS G12V mutant human colorectal cancer cell SW620. The experiment in a line: 3D cell proliferation inhibition assay, SW620. Conditions: SW-620, 168 h, 3D culture, 7 days, CTG.
Excerpt: as §1, §2, §3

Experiment [3] deals with T1, KRAS G12V protein in SW620 cells (Homo sapiens, UniProt P01116, G12V).
T1 construct: endogenous in cells; host or cells: SW620
T1 sequence (P01116 1-188 isoform P01116-2 G12V): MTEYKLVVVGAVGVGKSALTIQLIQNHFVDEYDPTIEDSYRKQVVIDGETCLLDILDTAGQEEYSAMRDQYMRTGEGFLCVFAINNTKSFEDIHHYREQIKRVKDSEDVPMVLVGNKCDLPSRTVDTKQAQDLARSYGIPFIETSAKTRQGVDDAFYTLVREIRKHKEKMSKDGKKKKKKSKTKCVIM
The experiment in a line: KRAS degradation assay (Western Blot) in SW620 cells. Conditions: for DC50: 24 h; for Dmax: SW-620, 24 h. The text has this: Test Example 5: KRAS G12C, KRAS G12D, KRAS G12V, KRAS G13D, and KRAS WT (Expanded) Degradation Assays
The degradation effect of the compounds on KRAS was investigated on KRAS G12C mutant human non-small cell lung cancer cell NCI-H358, KRAS G12D mutant human metastatic pancreatic cancer cell AsPc-1, KRAS G12D mutant human lung cancer cell A427, KRAS G12V mutant human colorectal cancer cell SW620, KRAS G12V mutant human lung cancer cell SW900, KRAS G13D mutant human colorectal cancer epithelial cell DLD-1, and KRAS WT human gastric cancer cell MKN-1. The specific procedures were as follows: 0.95 mL of cells were seeded into each well of a 24-well cell culture plate to achieve a cell density of 5×10^5 cells/well; and the cell plate was incubated in an incubator at 37° C. with 5% CO2 overnight. Then 50 μL of the compound solution after dilution was added to each of the wells with the corresponding cells, so that the final concentration of the compound was in a range of 0.03-3000 nM. The final concentration of DMSO was 0.25%. After the compounds were added, the cell plate was incubated in an incubator at 37° C. with 5% CO2 for 24 h. The culture medium in the 24-well cell culture plate was then removed, and the plate was washed twice with 1×PBS (KeyGEN). 120 μL of RIPA (strong) lysis buffer (Beyotime) (supplemented with 1 mM phenylmethylsulfonyl fluoride, a protease inhibitor mixture (Beyotime), and a protease phosphatase inhibitor mixture (Beyotime)) was added to lyse adherent SW900 cells at the bottom of the cell culture plate. After the plate was left to stand on ice for 30 min, the protein lysate in each well was transferred to a 1.5 mL centrifuge tube and centrifuged at 15000 g for 20 min at 4° C. The cell lysate supernatants after centrifugation were cryopreserved in a refrigerator at −80° C. for later use.
After the samples of the cell lysate supernatants that had been prepared were thawed from the refrigerator at −80° C., the total protein concentrations of the cell lysates were determined using a BCA protein quantification kit (Tiangen). The total protein concentrations of the samples were then adjusted to 0.5 μg/μL with PBS and 5×SDS-PAGE protein loading buffer (Beyotime), and the samples were incubated in a water bath at 100° C. for 15 min. The samples were then incubated in an ice bath for 5 min and centrifuged at 14000 g for 1 min at 4° C., and the supernatants were mixed well as loading samples for the Western Blot assay. The samples were loaded into wells of a 10% precast gel (KeyGEN) with a loading volume of 10 μL (total protein: 5 μg), a sufficient Tris-MOPS-SDS running buffer (Adamas) was added, and then electrophoresis was performed at a constant voltage of 120 V for 55 min. After the electrophoresis, the proteins on the gel were transferred to PVDF membranes at a constant current of 250 mA for 55 min. After the membrane transfer, the PVDF membranes were incubated in 1× Quick Block blocking buffer (Beyotime)at room temperature for 30 min. After the blocking, the PVDF membranes were separately incubated at 4° C. overnight with the KRAS antibody (Abcam) diluted in a ratio of 1:1000 and the β-actin antibody (Abcam) diluted in a ratio of 1:2000 in 5% BSA as the diluent, and then washed with 1×TBST buffer (2.4 g of Tris, 8.8 g of NaCl, 1.5 mL of Tween 20, with pH adjusted to 7.4, with the volume brought to 1 L) 3 times for 10 min/time. The membranes were incubated with a secondary antibody (Abcam) diluted in 5% BSA at room temperature for 2 h, and then washed with 1×TBST buffer 3 times for 10 min/time. Finally, the membranes were incubated with Clarity Western ECL Substrate (BIO-RAD) for 5 min for luminescence and color development, and a ChemiScope 6200 Touch chemiluminescence imaging system (Clinx) was used for color development and protein mapping. Gray value analysis of the protein maps was performed using the chemiluminescence analysis software (Clinx). […]
(In general: Immunoblotting shows a protein as a band on a membrane.)

Experiment [4] deals with KRAS G12D mutant human metastatic pancreatic cancer cell AsPc-1. The experiment in a line: 3D cell proliferation inhibition assay, AsPc-1. Conditions: ASPC1, 168 h, 3D culture, 7 days, CTG.
Excerpt: as §1, §2, §3

The test system of experiment [5] is KRAS G12C mutant human non-small cell lung cancer cell NCI-H358. The experiment in a line: 3D cell proliferation inhibition assay, NCI-H358. Conditions: NCI-H358, 168 h, 3D culture, 7 days, CTG.
Excerpt: as §1, §2, §3

In experiment [6] the test system is KRAS WT human gastric cancer cell MKN1. Briefly: 3D cell proliferation inhibition assay, MKN1. Conditions: MKN-1, 168 h, 3D culture, 7 days, CTG.
Excerpt: as §1, §2, §3

`C#Cc1c(F)ccc2cc(O)cc(-c3ccc4c(N5CCC[C@@](C)(O)C5)nc(OC[C@H](C)CN5CCN(CC6CCC7(CC6)CCN(C(=O)c6ccc(OC)c(N8CCC(=O)NC8=O)c6)CC7)CC5)nc4c3F)c12` [Example 60, 1-(5-(9-((4-((R)-3-((7-(8-ethynyl-7-fluoro-3-hydroxynaphthalen-1-yl)-8-fluoro-4-((R)-3-hydroxy-3-methylpiperidin-1-yl)quinazolin-2-yl)oxy)-2-methylpropyl)piperazin-1-yl)methyl)-3-azaspiro[5.5]undecane-3-carbonyl)-2-methoxyphenyl)dihydropyrimidine-2,4(1H,3H)-dione]: the IC50 is 57.5 nM in experiment [1], 15.4 nM in experiment [2], 60.8 nM in experiment [4] and 24 nM in experiment [5]. In experiment [3], this compound gave a DC50 of 4.25 nM. Moreover, the Dmax in experiment [3] came out at 99.1%.

In the case of `C#Cc1c(F)ccc2cc(O)cc(-c3ccc4c(N5CCC[C@@](C)(O)C5)nc(OC[C@H](C)CN5CCN(CC6CCC7(CC6)CCN(C(=O)c6ccc(C)c(N8CCC(=O)NC8=O)c6)CC7)CC5)nc4c3F)c12` [Example 61, 1-(5-(9-((4-((R)-3-((7-(8-ethynyl-7-fluoro-3-hydroxynaphthalen-1-yl)-8-fluoro-4-((R)-3-hydroxy-3-methylpiperidin-1-yl)quinazolin-2-yl)oxy)-2-methylpropyl)piperazin-1-yl)methyl)-3-azaspiro[5.5]undecane-3-carbonyl)-2-methylphenyl)dihydropyrimidine-2,4(1H,3H)-dione], the IC50 was found to be 39.9 nM in experiment [1], 13.3 nM in experiment [2], 68.2 nM in experiment [4] and 18.9 nM in experiment [5]. This compound also registered a DC50 in experiment [3] of 18.9 nM. In experiment [3], this compound came in with a Dmax of 99.3%.

As to `C#Cc1c(F)ccc2cc(O)cc(-c3ncc4c(N5CCCC(F)(F)C5)nc(OC[C@H](C)CN5CCN(CC6CCC7(CC6)CCN(C(=O)c6ccc(OC)c(N8CCC(=O)NC8=O)c6)CC7)CC5)nc4c3F)c12` [Example 67, (R)-1-(5-(9-((4-(3-((4-(3,3-difluoropiperidin-1-yl)-7-(8-ethynyl-7-fluoro-3-hydroxynaphthalen-1-yl)-8-fluoropyrido[4,3-d]pyrimidin-2-yl)oxy)-2-methylpropyl)piperazin-1-yl)methyl)-3-azaspiro[5.5]undecane-3-carbonyl)-2-methoxyphenyl)dihydropyrimidine-2,4(1H,3H)-dione], the IC50 in experiment [1] came out at 70.2 nM; in experiment [2] it was 32.9 nM; in experiment [4] it was 417 nM; in experiment [5], 535 nM. This compound yielded a DC50 in experiment [3] of 33.6 nM. In experiment [3], this compound yielded a Dmax of 93.1%.

Consider `C#Cc1c(F)ccc2cc(O)cc(-c3ncc4c(N5CCCC(F)(F)C5)nc(OCC5(CN6CCN(CC7CCC8(CC7)CCN(C(=O)c7ccc(OC)c(N9CCC(=O)NC9=O)c7)CC8)CC6)CC5)nc4c3F)c12` [Example 72, 1-(5-(9-((4-((1-(((4-(3,3-difluoropiperidin-1-yl)-7-(8-ethynyl-7-fluoro-3-hydroxynaphthalen-1-yl)-8-fluoropyrido[4,3-d]pyrimidin-2-yl)oxy)methyl)cyclopropyl)methyl)piperazin-1-yl)methyl)-3-azaspiro[5.5]undecane-3-carbonyl)-2-methoxyphenyl)dihydropyrimidine-2,4(1H,3H)-dione], for which the IC50 in experiment [1] is 54.3 nM; in experiment [2] it was 22 nM; in experiment [4] it was 176 nM; in experiment [6], 102 nM; in experiment [5], 32.9 nM. The compound further had a DC50 in experiment [3] of 11.8 nM. Further, the Dmax in experiment [3] is 95.2%.

For the compound `C#Cc1c(F)ccc2cc(O)cc(-c3ncc4c(N5CCC[C@@](C)(O)C5)nc(OCC(C)CN5CCN(CC6CCC7(CC6)CCN(C(=O)c6ccc(OC)c(N8CCC(=O)NC8=O)c6)CC7)CC5)nc4c3F)c12` (stereo partly drawn) [Example 86, 1-(5-(9-((4-(3-((7-(8-ethynyl-7-fluoro-3-hydroxynaphthalen-1-yl)-8-fluoro-4-((R)-3-hydroxy-3-methylpiperidin-1-yl)pyrido[4,3-d]pyrimidin-2-yl)oxy)-2-methylpropyl)piperazin-1-yl)methyl)-3-azaspiro[5.5]undecane-3-carbonyl)-2-methoxyphenyl)dihydropyrimidine-2,4(1H,3H)-dione], the IC50 is 9.98 nM in experiment [1]; 7.01 nM in experiment [2]; 21.2 nM in experiment [4]; 5.23 nM in experiment [6]; 6.63 nM in experiment [5]. This compound displayed a DC50 in experiment [3] of 14.2 nM. The compound also registered a Dmax in experiment [3] of 89.2%.

`C#Cc1c(F)ccc2cc(O)cc(-c3ncc4c(N5CCC[C@@](C)(O)C5)nc(OC[C@H](C)CN5CCN(CC6CCC7(CC6)CCN(C(=O)c6cc(N8CCC(=O)NC8=O)c(C)cc6F)CC7)CC5)nc4c3F)c12` [Example 162, 1-(5-(9-((4-((R)-3-((7-(8-ethynyl-7-fluoro-3-hydroxynaphthalen-1-yl)-8-fluoro-4-((R)-3-hydroxy-3-methylpiperidin-1-yl)pyrido[4,3-d]pyrimidin-2-yl)oxy)-2-methylpropyl)piperazin-1-yl)methyl)-3-azaspiro[5.5]undecane-3-carbonyl)-4-fluoro-2-methylphenyl)dihydropyrimidine-2,4(1H,3H)-dione]: the 50% inhibitory concentration (IC50) in experiment [1] turned out to be 12.8 nM; in experiment [2], 4.85 nM; in experiment [4] it was 19.9 nM; in experiment [5], 3.83 nM. The compound also came in with a DC50 in experiment [3] of 21.7 nM. The compound also registered a Dmax in experiment [3] of 100%.
